Experimental data as given in PubChem BioAssay AID850 (SRMLSC, 2007).
The source made the active and inactive calls. How the calls were made is not given here.

How the values were obtained:
[1] = test system: Saccharomyces cerevisiae growth inhibition, permissive control; assay: yeast lifespan-shortening chemical project counter-assay, dose-response inhibition of growth under permissive conditions (AID 850);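 further: growth read as optical density after one day of incubation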
[2] = as above; conditions: Saccharomyces cerevisiae growth inhibition, permissive control, measured here: maximum growth inhibition, stronger effect = higher value

Cc1nc2cc3ccccc3cc2c(=O)[nH]1
IC50 [1]: > 100 µM (inactive) | inhibition ([2]; at 0.781 µM): 13.9%

CC1(CCc2ccccc2)NC(=S)N(c2ccc(Cl)cc2)N1 (stereo unspecified)
IC50 [1]: 20.1 µM | inhibition ([2]; at 50 µM): 99.6%

COc1ccccc1N1CCN(C(CNC(=O)c2ccco2)c2cccnc2)CC1 (stereo unspecified)
IC50 [1]: > 100 µM (inactive) | inhibition ([2]; at 50 µM): 18.3%

O=c1c2sc(-c3ccccc3)cc2nc2n1CCC2
IC50 [1]: 14.6 µM | inhibition ([2]; at 50 µM): 83.4%

CCC1C(=O)N=C(SCC(=O)Nc2ccccc2)NC1=O (stereo unspecified)
IC50 [1]: 46.5 µM | inhibition ([2]; at 50 µM): 52.5%

COc1ccc(NC(=O)CC2SC(=Nc3ccccc3)NC2=O)c(OC)c1 (stereo unspecified)
IC50 [1]: > 100 µM (inactive) | inhibition ([2]; at 25 µM): 23.9%

COc1ccc(-c2n[nH]c(C(F)(F)F)c2-c2cc3ccccc3o2)c(O)c1
IC50 [1]: 36.6 µM | inhibition ([2]; at 50 µM): 53.6%

CCOC(=O)c1ccc(-n2[nH]c(-c3ccccc3)cc2=O)cc1
IC50 [1]: 47.7 µM | inhibition ([2]; at 12.5 µM): 47.7%

O=C1C(=C2CCCCC2)SC(=S)N1Cc1ccco1
IC50 [1]: > 100 µM (inactive) | inhibition ([2]; at 50 µM): 11.2%

CCc1nc2ccccc2c(=O)n1NC(=O)c1c(O)c2cccc3c2n(c1=O)CCC3
IC50 [1]: > 100 µM (inactive) | inhibition ([2]; at 50 µM): 2.73%

OC(CNCCc1ccc(C(F)(F)F)cc1)COc1ccc2ccccc2c1 (stereo unspecified)
IC50 [1]: > 100 µM (inactive) | inhibition ([2]; at 50 µM): 20.9%

Oc1c(Br)cc(Cl)cc1C=Nc1ccccc1Br
IC50 [1]: 7.27 µM | inhibition ([2]; at 50 µM): 100%

CCCc1ccc(OCC(=O)NNC(=S)NC(=O)c2ccco2)cc1
IC50 [1]: 10.6 µM | inhibition ([2]; at 50 µM): 98.8%

CCOC(=O)C(=NCCCN(C)C)NNc1ccc(Br)cc1
IC50 [1]: 5.8 µM | inhibition ([2]; at 50 µM): 97.4%

CC(C)CC(=O)/C(=C\c1ccc(Cl)cc1Cl)n1cncn1
IC50 [1]: 11.7 µM | inhibition ([2]; at 50 µM): 100%

Cc1nc2c(c(C)c1C#N)C(=O)c1ccccc1-2
IC50 [1]: > 100 µM (inactive) | inhibition ([2]; at 50 µM): 16%

Cc1ccc(/C=C2\C(=O)NC(=S)N(c3ccccc3F)C2=O)s1
IC50 [1]: > 100 µM (inactive) | inhibition ([2]; at 6.25 µM): 29%

CC1=C(C)CC2C(=O)N(c3cccc4ccccc34)C(=O)C2C1 (stereo unspecified)
IC50 [1]: > 100 µM (inactive) | inhibition ([2]; at 50 µM): 8.57%

O=C(CSC1=NCCS1)N1CCN(c2ccc(Cl)cc2)CC1
IC50 [1]: > 100 µM (inactive) | inhibition ([2]; at 50 µM): 20.7%

Oc1c(CN2CCN(c3ccc(F)cc3)CC2)cc(Cl)c2cccnc12
IC50 [1]: 12.2 µM | inhibition ([2]; at 50 µM): 100%

Cc1ccc(-c2nc3sc(C(N)=O)c(N)c3c3c2CCCC3)cc1
IC50 [1]: > 100 µM (inactive) | inhibition ([2]; at 50 µM): 14.4%

Oc1c(CN2CCCCC2)cc(Br)c2cccnc12
IC50 [1]: 7.22 µM | inhibition ([2]; at 50 µM): 99.8%

CN(c1ccc(O)cc1)c1nc(-c2ccccc2)cs1
IC50 [1]: > 100 µM (inactive) | inhibition ([2]; at 0.781 µM): 9.5%

Cc1ccccc1OCCCN1C(=O)C(=O)c2cccc(C)c21
IC50 [1]: > 100 µM (inactive) | inhibition ([2]; at 25 µM): 24.9%

CCSc1nc(N)nc(-c2cccs2)c1C#N
IC50 [1]: 35.2 µM | inhibition ([2]; at 50 µM): 70.4%

Cc1cccc(OCCn2cc(/C=N/NC(=O)c3ccncc3)c3ccccc32)c1
IC50 [1]: > 100 µM (inactive) | inhibition ([2]; at 0.781 µM): 10%

CCCCCC/C(=N/O)c1ccccn1
IC50 [1]: 9.77 µM | inhibition ([2]; at 50 µM): 99.6%

Cc1ccc(-n2cnc3cc(NCc4cccs4)ccc32)cc1
IC50 [1]: 45.8 µM | inhibition ([2]; at 50 µM): 53.2%

CC(C)(C)c1nnc(N/N=C/c2cc(Br)ccc2O)n(N)c1=O
IC50 [1]: 49.9 µM | inhibition ([2]; at 50 µM): 50.9%

CCOC(=O)C1CCCCN1C(=O)CCc1c(C)nc2cc(-c3ccccc3)nn2c1C (stereo unspecified)
IC50 [1]: > 100 µM (inactive) | inhibition ([2]; at 25 µM): 21.6%

C=C(C)COc1ccc(-c2[nH]ncc2-c2ccccc2)c(O)c1
IC50 [1]: 38.6 µM | inhibition ([2]; at 50 µM): 86.8%

CCCCCCCCCCCCCCCC[n+]1cccc2ccccc21
IC50 [1]: 0.701 µM | inhibition ([2]; at 50 µM): 100%

Nc1c(Nc2ccccc2)c2ccccc2oc1=O
IC50 [1]: 47.1 µM | inhibition ([2]; at 50 µM): 47.2%

c1ccc(-c2ccc(OCCCn3cncn3)cc2)cc1
IC50 [1]: 34.1 µM | inhibition ([2]; at 25 µM): 57.7%

O=C(Nc1nc(-c2ccccn2)cs1)c1ncc(Cl)c(Cl)c1Cl
IC50 [1]: > 100 µM (inactive) | inhibition ([2]; at 12.5 µM): 13.1%

CC(C)N=c1scc(-c2cccs2)n1/N=C/c1ccc(O)c(O)c1O
IC50 [1]: > 100 µM (inactive) | inhibition ([2]; at 0.195 µM): 2.13%

Cc1cccc(C(=O)Oc2csc(=S)n2C(=O)c2cccc(C)c2)c1
IC50 [1]: 47.8 µM | inhibition ([2]; at 50 µM): 55.6%

O=c1cnn([C@@H]2O[C@H](CO)[C@@H](O)[C@H]2O)c(=O)[nH]1
IC50 [1]: 16.6 µM | inhibition ([2]; at 50 µM): 68.7%

O=Cc1c(Sc2ccccc2)nc2ccccn2c1=O
IC50 [1]: > 100 µM (inactive) | inhibition ([2]; at 12.5 µM): 2.01%

CCn1c(Sc2nc(C)nc3scc(-c4cccs4)c23)n[nH]c1=O
IC50 [1]: 22.9 µM | inhibition ([2]; at 25 µM): 55.1%

CC(Nc1ccc(Br)cn1)c1cc(Cl)ccc1O (stereo unspecified)
IC50 [1]: > 100 µM (inactive) | inhibition ([2]; at 0.781 µM): 12.8%

Cc1nn2c(-c3ccncc3)nnc2c2ccccc12
IC50 [1]: 11.8 µM | inhibition ([2]; at 25 µM): 73.2%

O=c1c(-c2ccccc2)nc(-c2ccccc2)cn1O
IC50 [1]: 22.9 µM | inhibition ([2]; at 50 µM): 82.1%

Clc1ccc(N=c2ssnc2Cl)cc1
IC50 [1]: 32.6 µM | inhibition ([2]; at 50 µM): 66.3%

COC(=O)Cn1c2ccc(C)cc2c2nc(C)sc21
IC50 [1]: > 100 µM (inactive) | inhibition ([2]; at 50 µM): 16%

O=[N+]([O-])c1ccc(CN2CCCCCC2)s1
IC50 [1]: > 100 µM (inactive) | inhibition ([2]; at 25 µM): 28.2%

CN(c1ccccc1)c1ccc(/C=C/[N+](=O)[O-])cc1
IC50 [1]: 16.8 µM | inhibition ([2]; at 50 µM): 98.4%

Cc1ccc(-c2nnc3ccc(SC(C)C(=O)O)nn23)cc1 (stereo unspecified)
IC50 [1]: > 100 µM (inactive) | inhibition ([2]; at 6.25 µM): 10.5%

O=C(Nc1nnc(-c2ccc(F)cc2)o1)c1cc(Cl)sc1Cl
IC50 [1]: 36.8 µM | inhibition ([2]; at 50 µM): 81.8%

COc1cccc2sc(Nc3nc(-c4ccccn4)cs3)nc12
IC50 [1]: 20 µM | inhibition ([2]; at 50 µM): 77.8%

O=C1c2cccc3c(Cl)ccc(c23)C(=O)N1O
IC50 [1]: 39.6 µM | inhibition ([2]; at 50 µM): 61.6%

Clc1ccc(CCNc2nc3ccccc3s2)cc1
IC50 [1]: > 100 µM (inactive) | inhibition ([2]; at 0.195 µM): -6.19%

Cc1ccc(C(=O)O/N=C/c2c(N3CCOCC3)n(C)c3ccccc23)cc1
IC50 [1]: > 100 µM (inactive) | inhibition ([2]; at 6.25 µM): 18.7%

CCc1ccc(S(=O)(=O)NCCc2cn3ccsc3n2)s1
IC50 [1]: > 100 µM (inactive) | inhibition ([2]; at 25 µM): 10.4%

Oc1c(C(Nc2nc3ccccc3s2)c2ccco2)ccc2cccnc12 (stereo unspecified)
IC50 [1]: > 100 µM (inactive) | inhibition ([2]; at 50 µM): 23.2%

COc1ccccc1-n1c(=O)oc2ccc(Cl)cc2c1=O
IC50 [1]: > 100 µM (inactive) | inhibition ([2]; at 6.25 µM): -0.76%

CCCc1cc(-c2n[nH]c(=S)n2C(C)c2ccccc2)cs1 (stereo unspecified)
IC50 [1]: > 100 µM (inactive) | inhibition ([2]; at 0.391 µM): 1.3%

CC(C)(C)c1ccc(-c2nc(-c3ccncc3)no2)cc1
IC50 [1]: 47 µM | inhibition ([2]; at 50 µM): 48.7%

O=C(Nc1cccc(C(F)(F)F)c1)C(Sc1cccc[n+]1[O-])c1ccccc1 (stereo unspecified)
IC50 [1]: 31.4 µM | inhibition ([2]; at 50 µM): 90.2%

Cc1cc(=O)[nH]c(-n2nc(C)cc2C)n1
IC50 [1]: 15.4 µM | inhibition ([2]; at 50 µM): 99.6%

CCC(C)/C(C)=N/NC(=O)c1ccc(COc2ccc(Cl)c(C)c2)cc1 (stereo unspecified)
IC50 [1]: 27 µM | inhibition ([2]; at 50 µM): 83.8%

CC1(C)C[C@H]2C=C(C=O)[C@]3(C=O)C[C@]3(C)[C@H]2C1
IC50 [1]: 4.38 µM | inhibition ([2]; at 50 µM): 100%

O=C(O)CCSc1nnc(-c2ccccc2)n1-c1ccccc1
IC50 [1]: > 100 µM (inactive) | inhibition ([2]; at 1.563 µM): 15.8%

Cc1cccc(-c2nnc3sc(-c4ccccc4C)nn23)c1
IC50 [1]: > 100 µM (inactive) | inhibition ([2]; at 50 µM): 29.1%

Cc1ccc(-n2c(C)cc(C(=O)COC(=O)c3ccc[nH]c3=O)c2C)cc1C
IC50 [1]: 10.8 µM | inhibition ([2]; at 50 µM): 99.6%

O=C1C(=O)c2ccccc2-c2ccccc21
IC50 [1]: 1.01 µM | inhibition ([2]; at 50 µM): 99.2%

Cc1ccc(-c2nn3c(C)nnc3s2)cc1NC(=O)c1ccc(OC(C)C)cc1
IC50 [1]: > 100 µM (inactive) | inhibition ([2]; at 0.098 µM): 17.3%

Nc1ccc(C(=O)OCC(=O)Nc2ccc3c(c2)OCO3)cc1[N+](=O)[O-]
IC50 [1]: > 100 µM (inactive) | inhibition ([2]; at 0.391 µM): 17.2%

Cc1nc2ccc(C(=O)O)cc2[nH]1
IC50 [1]: > 100 µM (inactive) | inhibition ([2]; at 0.391 µM): 27.5%

C(=N\c1ncnc2sccc12)/NOCc1ccccc1
IC50 [1]: 7.68 µM | inhibition ([2]; at 50 µM): 98.6%

Cc1ccc(O)c(-c2cc(-c3cccc(F)c3)n[nH]2)c1
IC50 [1]: 25 µM | inhibition ([2]; at 50 µM): 96.9%

O=C(O)c1ccc2nc(-c3ccccc3)sc2c1
IC50 [1]: > 100 µM (inactive) | inhibition ([2]; at 0.781 µM): 28.2%

COc1ccc(/C(C)=N/NC(=O)c2ccc(CSc3cccc4cccnc34)cc2)cc1OC
IC50 [1]: > 100 µM (inactive) | inhibition ([2]; at 6.25 µM): 12.5%

Cc1ccc(N2NC(C)(c3cccs3)NC2=S)cc1 (stereo unspecified)
IC50 [1]: 12.1 µM | inhibition ([2]; at 25 µM): 94.1%

O=C(/C=C/N1CCOCC1)c1ccc(-c2ccccc2)cc1
IC50 [1]: 7.19 µM | inhibition ([2]; at 25 µM): 99.6%

O=C(O)c1ccc(SCc2cnc(Cl)s2)cc1
IC50 [1]: 4.91 µM | inhibition ([2]; at 50 µM): 99.2%

Cc1ccccc1N=Cc1cccc(O)c1O
IC50 [1]: 7.59 µM | inhibition ([2]; at 50 µM): 99.2%

CCOc1cc(/C=N/Nc2ccccc2Cl)ccc1OCC(=O)O
IC50 [1]: 9.2 µM | inhibition ([2]; at 50 µM): 99%

C=CCN1C(=O)/C(=C/c2cccs2)C(=O)NC1=S
IC50 [1]: 6.15 µM | inhibition ([2]; at 50 µM): 99.8%

Cn1c(/C=C/c2ccc([N+](=O)[O-])o2)nc2ccccc2c1=O
IC50 [1]: 51.4 µM | inhibition ([2]; at 50 µM): 47.5%

CCCCCCN1N=C(C)C(C(=O)c2ccc(Cl)cc2)C1=O (stereo unspecified)
IC50 [1]: 24.5 µM | inhibition ([2]; at 50 µM): 75%

CCOC(=O)C1=Nc2ccccc2C1=[N+]=[N-]
IC50 [1]: 5.45 µM | inhibition ([2]; at 50 µM): 99.2%

c1ccc2c(c1)nnn1c3ccccc3nc21
IC50 [1]: > 100 µM (inactive) | inhibition ([2]; at 3.125 µM): 14.6%
